Like-named read-outs stand apart in the source and are kept apart here. Values belong to the molecule of their own block, whether it stands above or below them.
Tests used:
[1] = at the given pH, single value or median, cited from earlier work
[2] = cited from earlier work
[3] = biological target: T1, Adenosine receptor A2a, ADORA2A (h) (Homo sapiens, UniProt P29274); assay: IPP ADORA2A binding (agonist radioligand); details: control NECA
T1 construct: purchased Eurofins Cerep (SafetyScreen44-based IPP panel)
T1 sequence (P29274 whole entry): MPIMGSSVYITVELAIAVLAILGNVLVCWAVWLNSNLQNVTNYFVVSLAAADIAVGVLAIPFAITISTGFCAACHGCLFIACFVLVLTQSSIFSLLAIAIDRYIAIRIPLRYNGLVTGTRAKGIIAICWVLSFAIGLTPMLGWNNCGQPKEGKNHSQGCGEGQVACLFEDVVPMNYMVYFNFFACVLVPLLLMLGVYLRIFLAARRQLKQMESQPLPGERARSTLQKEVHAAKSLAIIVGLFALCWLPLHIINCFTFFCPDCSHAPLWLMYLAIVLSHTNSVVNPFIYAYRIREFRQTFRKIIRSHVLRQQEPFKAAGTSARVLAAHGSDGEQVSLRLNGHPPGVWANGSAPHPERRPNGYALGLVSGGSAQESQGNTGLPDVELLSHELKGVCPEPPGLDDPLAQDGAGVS

[4] = PBK model plasma Cmax estimate (Gastroplus 9.8; levels L1, L2, L3); parameters: species or system human; details: therapeutic uses
[5] = hepatic intrinsic clearance (Clint); details: PBK level L3; optimised against clinical data; per chemical [8],[9],[14],[16],[22],[24],[25],[29],[30],[32]
MCF7 cells = assay: High-throughput transcriptomics (HTTr, TempO-Seq), MCF7, 24 h; format: cell-based, human; details: MCF-7
Procedure: (§1) HepG2, HepaRG, and MCF7 cells were treated with each compound for 24 h across a dose range of 7 concentrations and lysed using TempO-Seq lysis buffer (BioSpyder Technologies, proprietary kit, see [Middleton et al. 2022] for method details). Sequencing was performed using TempO-Seq (BioClavis) version 2 of the human whole transcriptome panel and analyzed as described previously in Middleton et al.

HepG2 cells [6] = assay: High-throughput transcriptomics (HTTr, TempO-Seq), HepG2, 24 h; format: cell-based, human
Procedure: as §1

rat = details: rat; 28 days; changes in thyroid hormone levels; ref ToxRefDB/Paul-Friedman et al. (2020)/regulatory opinions; cited from earlier work
HepG2 cells [7] = assay: Cell stress panel (CSP), 24 h, 8 concentrations, BIFROST global PoD; format: cell-based; details: HepG2; cell stress panel PoD
Procedure: Compounds were tested using the previously developed cell stress panel ([Hatherell et al. 2020]) and the expanded biomarker panel outlined in Middleton et al. HepG2 cells were treated with all compounds for 24 h across 8 concentrations prior to biomarker analysis. The same plate layout and number of replicates (3 biological and 2 technical) were used as previously for each assay within the panel.

[8] = system: Thyroid hormone receptor alpha, THRA (h); assay: IPP THRA coactivator recruitment (agonist); format: biochemical, human; details: agonist, T3
[9] = biological target: T2, Pregnane X receptor PXR, NR1I2 (h) (Homo sapiens, UniProt O75469)
T2 sequence (O75469 1-434): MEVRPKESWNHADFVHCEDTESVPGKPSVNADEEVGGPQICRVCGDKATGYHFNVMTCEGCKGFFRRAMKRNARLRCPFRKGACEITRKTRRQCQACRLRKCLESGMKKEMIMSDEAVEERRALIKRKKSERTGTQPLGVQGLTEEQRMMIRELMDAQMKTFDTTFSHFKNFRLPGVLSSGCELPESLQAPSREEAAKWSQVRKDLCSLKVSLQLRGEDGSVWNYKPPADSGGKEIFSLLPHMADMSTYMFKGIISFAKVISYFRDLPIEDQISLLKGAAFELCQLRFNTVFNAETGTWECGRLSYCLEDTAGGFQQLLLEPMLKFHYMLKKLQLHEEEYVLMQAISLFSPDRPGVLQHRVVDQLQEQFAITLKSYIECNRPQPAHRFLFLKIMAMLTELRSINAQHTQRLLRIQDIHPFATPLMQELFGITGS

[10] = biological target: T3, Estrogen receptor, ER1 (h) (Homo sapiens, UniProt P03372); assay: IPP ER1 coactivator recruitment (antagonist); format: biochemical; details: 10 uM, estriol
T3 construct: purchased Eurofins Cerep (SafetyScreen44-based IPP panel)
T3 sequence (P03372 1-595): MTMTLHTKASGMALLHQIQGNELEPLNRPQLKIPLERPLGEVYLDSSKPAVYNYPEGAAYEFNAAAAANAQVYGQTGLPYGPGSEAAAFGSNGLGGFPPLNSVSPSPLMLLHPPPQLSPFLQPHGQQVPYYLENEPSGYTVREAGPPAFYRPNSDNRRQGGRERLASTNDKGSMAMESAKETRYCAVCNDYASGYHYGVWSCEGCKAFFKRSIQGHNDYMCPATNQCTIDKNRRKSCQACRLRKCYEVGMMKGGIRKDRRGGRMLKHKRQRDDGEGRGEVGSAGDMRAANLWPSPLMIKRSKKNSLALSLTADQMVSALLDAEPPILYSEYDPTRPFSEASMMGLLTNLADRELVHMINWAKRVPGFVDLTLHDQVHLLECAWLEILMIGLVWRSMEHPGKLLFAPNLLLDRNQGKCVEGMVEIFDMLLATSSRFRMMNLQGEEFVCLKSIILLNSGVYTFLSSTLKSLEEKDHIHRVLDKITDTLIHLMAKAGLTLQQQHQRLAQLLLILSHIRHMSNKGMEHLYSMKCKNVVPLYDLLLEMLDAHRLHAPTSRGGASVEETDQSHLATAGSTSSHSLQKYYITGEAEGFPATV

[11] = system: Gamma-aminobutyric acid receptor subunit alpha-1 BZD site, GABRA1A (r); format: binding, rat; details: control diazepam
[12] = Assignment of risk classifications to benchmark chemical-exposure scenarios; details: from table S1
[13] = biological target: T3, Estrogen receptor, ER1 (h); assay: IPP ER1 coactivator recruitment (agonist); format: biochemical; details: 10 uM, estriol
[14] = cited from earlier work; remark: listed apart in the source
[15] = system: Glutamate receptor ionotropic NMDA 1 non-selective, GRIN1 (r); details: IPP screening at 10 uM; control CGS 19755
[16] = human
Tubulin (r) = assay: IPP Tubulin binding; parameters: species or system rat; details: ligand/control Colchicine
[17] = system: 63 targets with known safety liabilities; assay: In vitro pharmacological profiling (IPP) panel, screening at 10 or 100 µM and dose response, minimum IC50/AC50; format: biochemical; details: lowest AC50 across IPP panel (systemic targets); cell_type -; read-out: ipp_lowest_ac50_systemic PoD
HepaRG cells = assay: High-throughput transcriptomics (HTTr, TempO-Seq), HepaRG, 24 h; format: cell-based, human; details: HepaRG
Procedure: as §1

[18] = biological target: Dopamine receptor D2, DRD2 (h) (Homo sapiens, UniProt P14416); assay: biochemical
Sequence of Dopamine receptor D2, DRD2 (h) (P14416 whole entry): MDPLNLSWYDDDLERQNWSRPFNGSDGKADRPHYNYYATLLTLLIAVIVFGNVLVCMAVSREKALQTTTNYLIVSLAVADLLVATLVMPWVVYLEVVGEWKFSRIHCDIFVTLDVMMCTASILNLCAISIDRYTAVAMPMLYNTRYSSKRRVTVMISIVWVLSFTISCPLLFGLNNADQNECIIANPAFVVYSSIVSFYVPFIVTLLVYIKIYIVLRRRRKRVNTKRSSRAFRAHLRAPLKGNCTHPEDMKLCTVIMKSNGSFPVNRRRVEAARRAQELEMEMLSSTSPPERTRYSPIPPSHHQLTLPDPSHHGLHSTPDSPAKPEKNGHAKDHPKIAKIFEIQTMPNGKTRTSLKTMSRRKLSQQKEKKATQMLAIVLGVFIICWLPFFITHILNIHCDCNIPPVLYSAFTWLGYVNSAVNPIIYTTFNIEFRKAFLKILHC

[19] = biological target: Voltage-dependent L-type Ca2+ channel (dihydropyridine site), CACNA1C (r) (Rattus norvegicus, UniProt P22002); format: binding
Sequence of Voltage-dependent L-type Ca2+ channel (dihydropyridine site), CACNA1C (r) (P22002 whole entry): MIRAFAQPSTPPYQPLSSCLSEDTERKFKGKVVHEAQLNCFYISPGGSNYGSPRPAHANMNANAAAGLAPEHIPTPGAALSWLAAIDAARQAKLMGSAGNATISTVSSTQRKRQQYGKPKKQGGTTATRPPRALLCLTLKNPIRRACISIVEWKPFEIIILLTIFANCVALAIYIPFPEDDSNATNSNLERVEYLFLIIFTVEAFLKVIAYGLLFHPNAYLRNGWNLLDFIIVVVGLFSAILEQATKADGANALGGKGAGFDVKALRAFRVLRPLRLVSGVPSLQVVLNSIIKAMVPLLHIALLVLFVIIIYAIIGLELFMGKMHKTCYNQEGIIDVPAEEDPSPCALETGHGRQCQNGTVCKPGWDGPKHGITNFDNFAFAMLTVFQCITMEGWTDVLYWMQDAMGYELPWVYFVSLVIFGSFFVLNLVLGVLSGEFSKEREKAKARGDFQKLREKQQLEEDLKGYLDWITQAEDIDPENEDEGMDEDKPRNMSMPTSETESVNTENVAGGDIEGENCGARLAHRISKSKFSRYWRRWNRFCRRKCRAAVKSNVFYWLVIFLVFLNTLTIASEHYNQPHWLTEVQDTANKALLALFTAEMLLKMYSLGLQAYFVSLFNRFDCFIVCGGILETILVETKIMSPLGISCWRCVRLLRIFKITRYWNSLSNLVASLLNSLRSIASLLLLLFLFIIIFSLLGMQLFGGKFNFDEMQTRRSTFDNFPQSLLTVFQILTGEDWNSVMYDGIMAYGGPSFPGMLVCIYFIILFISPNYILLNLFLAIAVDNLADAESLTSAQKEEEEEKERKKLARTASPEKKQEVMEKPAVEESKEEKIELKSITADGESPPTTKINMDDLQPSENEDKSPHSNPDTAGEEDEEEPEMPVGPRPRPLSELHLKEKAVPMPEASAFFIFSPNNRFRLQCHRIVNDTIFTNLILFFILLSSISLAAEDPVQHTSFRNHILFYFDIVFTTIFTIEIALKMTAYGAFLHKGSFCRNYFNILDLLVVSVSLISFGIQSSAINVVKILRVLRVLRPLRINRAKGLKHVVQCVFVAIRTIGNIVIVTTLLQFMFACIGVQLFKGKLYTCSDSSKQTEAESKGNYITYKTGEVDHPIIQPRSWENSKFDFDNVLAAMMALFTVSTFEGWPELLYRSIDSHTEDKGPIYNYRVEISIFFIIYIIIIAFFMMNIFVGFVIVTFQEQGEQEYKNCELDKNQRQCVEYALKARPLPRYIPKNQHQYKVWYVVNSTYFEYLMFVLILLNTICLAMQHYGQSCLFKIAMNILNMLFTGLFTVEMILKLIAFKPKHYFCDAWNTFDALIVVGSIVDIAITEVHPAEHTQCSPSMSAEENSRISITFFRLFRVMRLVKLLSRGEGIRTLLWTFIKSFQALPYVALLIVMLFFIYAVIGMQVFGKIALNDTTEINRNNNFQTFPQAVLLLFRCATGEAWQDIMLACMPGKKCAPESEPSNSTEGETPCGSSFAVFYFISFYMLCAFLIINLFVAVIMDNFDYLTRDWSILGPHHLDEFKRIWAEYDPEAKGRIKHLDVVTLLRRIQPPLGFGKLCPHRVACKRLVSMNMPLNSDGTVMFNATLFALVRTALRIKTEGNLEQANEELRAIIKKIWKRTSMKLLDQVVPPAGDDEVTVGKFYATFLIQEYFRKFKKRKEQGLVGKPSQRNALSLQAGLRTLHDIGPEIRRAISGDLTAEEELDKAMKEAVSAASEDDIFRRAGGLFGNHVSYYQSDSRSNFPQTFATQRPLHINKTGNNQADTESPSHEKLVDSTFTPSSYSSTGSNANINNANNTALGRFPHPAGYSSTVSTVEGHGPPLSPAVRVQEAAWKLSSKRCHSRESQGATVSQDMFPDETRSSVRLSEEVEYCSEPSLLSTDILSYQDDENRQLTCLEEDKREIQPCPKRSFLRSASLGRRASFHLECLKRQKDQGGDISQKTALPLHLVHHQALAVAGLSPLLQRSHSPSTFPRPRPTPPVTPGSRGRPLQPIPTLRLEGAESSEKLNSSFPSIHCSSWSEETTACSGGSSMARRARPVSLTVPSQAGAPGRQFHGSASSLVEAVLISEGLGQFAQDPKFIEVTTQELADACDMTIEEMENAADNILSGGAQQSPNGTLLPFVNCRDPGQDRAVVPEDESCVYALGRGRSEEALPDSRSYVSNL

[20] = system: Potassium Voltage-Gated Channel Kv non-selective, KCNQ1 (r); assay: IPP KCNQ1 binding (antagonist radioligand); parameters: species or system rat; details: IPP screening at 100 uM; control α-dendrotoxin
[21] = system: Sodium channel protein type 5 subunit alpha (site 2), SCN5A (r); format: binding, rat
[22] = unbound fraction in plasma (fup); details: PBK input, levels L2/L3; median of [2] internal data (unpublished) and [10]
[23] = PBK input, levels L2/L3; ref [5]; cited from earlier work
[24] = PBK level L2, taken or scaled from references (median where several), ref [6],[7],[10],[19]
[25] = Oral 200 mg solution, fasted, 23 healthy male, validation, ref Huang et al. 1986
[26] = Oral 200 mg suspension, fasted, 23 healthy male, validation, ref Huang et al. 1986
[27] = Oral 200 mg tablet, fasted, 23 healthy male, validation, ref Huang et al. 1986
[28] = Oral 200 mg tablet, fed, 6 healthy male, calibration, ref Daneshmend et al. 1981
[29] = Oral 200 mg tablet, fed, 8 healthy male, validation, ref Daneshmend et al. 1983
[30] = IV 10 mg infusion (8.9 mg), 6 healthy, calibration, ref Ross-Lee et al. 1981
[31] = IV 20 mg infusion (15.4 mg base), 8 healthy, validation, ref Magueur et al. 1991
[32] = Oral 10 mg tablet (8.9 mg), fasted, 6 healthy, calibration, ref Ross-Lee et al. 1981
[33] = Oral 10 mg tablet (8.9 mg), fasted, 8 healthy male, validation, ref Bateman et al. 1980
[34] = Oral 20 mg tablet (17 mg base), fasted, 8 healthy, validation, ref Magueur et al. 1991
[35] = Oral 20 mg tablet (17.8 mg), fasted, 8 healthy male, validation, ref Bateman et al. 1980

Structure (SMILES): CC(=O)N1CCN(c2ccc(OC[C@H]3CO[C@](Cn4ccnc4)(c4ccc(Cl)cc4Cl)O3)cc2)CC1 [Ketoconazole, 1-{4-[4-({(2R,4S)-2-(2,4-Dichlorophenyl)-2-[(1H-imidazol-1-yl)methyl]-1,3-dioxolan-4-yl}methoxy)phenyl]piperazin-1-yl}ethan-1-one]
Aqueous Solubility ([1]; PBK level L2, ref [1],[4],[5],[10],[11],[17],[26]): 42 µg/mL
Aqueous Solubility ([1]; PBK level L3, ref [4],[5],[10],[11]): 42 µg/mL
Intrinsic Liver Clearance [2, 24]: 1620.2 L/h
Specific binding ([3]; IPP screening at 10 uM): 2.1%
underprediction of the L3 result at L2 (Cmax) [4]: ≥ 5 fold
Intrinsic Liver Clearance [5]: 10077 L/h
pod_httr_bifrost PoD (MCF7 cells; HTTr BIFROST PoD): 0.1915 µM
podl_path_minbmd PoD (MCF7 cells; HTTr minimum pathway BMD(L)): 0.1648 µM
pod_httr_bifrost PoD (HepG2 cells [6]; HepG2, HTTr BIFROST PoD): 0.0007156 µM
podl_path_minbmd PoD (HepG2 cells [6]; HepG2, HTTr minimum pathway BMD(L)): 0.9153 µM
PoD (NOEL) (rat): 6.25 mg/kg bw/day
pod_cell_stress PoD (HepG2 cells [7]): 0.1454 µM
IPP screening %, Coactivator recruitment ([8]; 10 uM): 1.0%
IPP Dose Response PoD: PXR antagonist [9]: [7.8,21.8]
IPP screening %, Coactivator recruitment [10]: 24.0%
Specific binding ([11]; IPP screening at 10 uM): 15.5%
risk ([12]; Dermal, Therapeutic, 2% daily, Shampoo, Exp2): 0
risk ([12]; Dermal, Therapeutic, 2% twice weekly, Shampoo, Exp1): 0
risk ([12]; Oral, 200 mg/day for fungal infection, Tablet, Exp4): 1
risk ([12]; Oral, Therapeutic, 1200mg/day, Tablet, Exp3): 1
IPP screening %, Coactivator recruitment [13]: -1.0%
Reported AUC0-t [14, 25]: 18170 ng·h/mL
Reported cmax [14, 25]: 5160 ng/mL
Reported tmax [14, 25]: 1 h
Reported AUC0-t [14, 26]: 15730 ng·h/mL
Reported cmax [14, 26]: 4660 ng/mL
Reported tmax [14, 26]: 1 h
Reported AUC0-t [14, 27]: 14740 ng·h/mL
Reported cmax [14, 27]: 3260 ng/mL
Reported tmax [14, 27]: 2 h
Reported AUC0-t [14, 28]: 16940 ng·h/mL
Reported cmax [14, 28]: 3573 ng/mL
Reported tmax [14, 28]: 2.475 h
Reported AUC0-t [14, 29]: 10330 ng·h/mL
Reported cmax [14, 29]: 3636 ng/mL
Reported tmax [14, 29]: 1.28 h
Specific binding [15]: 2.7%
Fup [16]: 0.1%
IPP screening %, Specific binding (Tubulin (r); 10 uM): -15.0%
AC50 [17]: 380 nM
pod_httr_bifrost PoD (HepaRG cells; HTTr BIFROST PoD): 0.01699 µM
podl_path_minbmd PoD (HepaRG cells; HTTr minimum pathway BMD(L)): 0.1535 µM

Structure (SMILES): CCN(CC)CCNC(=O)c1cc(Cl)c(N)cc1OC [Metoclopramide, 4-Amino-5-chloro-N-[2-(diethylamino)ethyl]-2-methoxybenzamide]
Intrinsic Liver Clearance [2, 24]: 33.81 L/h
Intrinsic Liver Clearance ([2]; PBK level L3, scaled from references (median where several), ref [7],[10],[19]): 33.81 L/h
Specific binding ([3]; IPP screening at 100 uM): 6.5%
next lowest PoD, HepG2 HTTr (HepG2 cells [6]; BIFROST gene level PoD): 16 µM
IC50 [18]: 46 nM
IPP screening %, Coactivator recruitment ([8]; 100 uM, * denotes assay interference (2-Amino-6-chloro-4-nitrophenol, HC Red 3)): 1.0%
Specific binding [19]: -18.6%
Specific binding ([11]; IPP screening at 100 uM): 29.4%
risk ([12]; IV, High therapeutic, 30 mg/day, Exp3): 1
risk ([12]; Oral, High therapeutic, 30 mg/day, Tablet, Exp2): 1
risk ([12]; Oral, Low therapeutic, 10 mg/day, Tablet, Exp1): 1
Reported AUC0-t [14, 30]: 325.9 ng·h/mL
Reported cmax [14, 30]: 129.1 ng/mL
Reported tmax [14, 30]: 0.076 h
Reported AUC0-t [14, 31]: 968.3 ng·h/mL
Reported cmax [14, 31]: 201.3 ng/mL
Reported tmax [14, 31]: 0.042 h
Reported AUC0-t [14, 32]: 247.7 ng·h/mL
Reported cmax [14, 32]: 51.06 ng/mL
Reported tmax [14, 32]: 0.746 h
Reported AUC0-t [14, 33]: 142.87 ng·h/mL
Reported cmax [14, 33]: 39.948 ng/mL
Reported tmax [14, 33]: 0.7767 h
Reported AUC0-t [14, 34]: 604 ng·h/mL
Reported cmax [14, 34]: 55.85 ng/mL
Reported tmax [14, 34]: 2.01 h
Reported AUC0-t [14, 35]: 359.8 ng·h/mL
Reported cmax [14, 35]: 75.62 ng/mL
Reported tmax [14, 35]: 1.037 h
Specific binding [20]: -1.0%
IPP screening %, Specific binding (Tubulin (r); 100 uM): 0.0%
Specific binding [21]: 40.1%

Fup [22]: 68.88%
Structure (SMILES): CN(C)[C@@H]1C(O)=C(C(N)=O)C(=O)[C@@]2(O)C(O)=C3C(=O)c4c(O)cccc4[C@@](C)(O)[C@H]3[C@H](O)[C@@H]12 [Oxytetracycline]
logP/D [23]: -1.307

Reference: paper PMC11879040, “Advancing systemic toxicity risk assessment: Evaluation of a NAM-based toolbox approach” (Toxicological Sciences, 2024)
